# Columns and labels:
# [1] = test system: Pseudomonas aeruginosa; assay: Antimicrobial activity against Pseudomonas aeruginosa mutGR1 overexpressing mexXY mutant by twofold macrodilution method; format: functional
# [2] = test system: Pseudomonas aeruginosa; assay: Antimicrobial activity against ampicillin- and ticarcillin-resistant Pseudomonas aeruginosa FE60 mutant transformed with pAGH97 carrying mexXY operon by twofold macrodilution method; format: functional
# [3] = test system: Pseudomonas aeruginosa; assay: Antimicrobial activity against ampicillin- and ticarcillin-resistant Pseudomonas aeruginosa FE60 mutant transformed with pAGH97 carrying mexXY F29S mutant by twofold macrodilution method; format: functional
# [4] = test system: Pseudomonas aeruginosa; assay: Antimicrobial activity against ampicillin- and ticarcillin-resistant Pseudomonas aeruginosa FE60 mutant transformed with pAGH97 carrying mexXY F1018L mutant by twofold macrodilution method; format: functional
# [5] = test system: Pseudomonas aeruginosa; assay: Antimicrobial activity against Pseudomonas aeruginosa isolate 615R obtained from cystic fibrosis patient by disk diffusion method; format: functional
# [6] = test system: Pseudomonas aeruginosa; assay: Antimicrobial activity against Pseudomonas aeruginosa isolate 2729 obtained from cystic fibrosis patient by disk diffusion method; format: functional
# [7] = test system: Pseudomonas aeruginosa; assay: Antimicrobial activity against Pseudomonas aeruginosa isolate 2804 obtained from cystic fibrosis patient by disk diffusion method; format: functional
# [8] = test system: Pseudomonas aeruginosa; assay: Antimicrobial activity against Pseudomonas aeruginosa isolate 2858 obtained from cystic fibrosis patient by disk diffusion method; format: functional
# [9] = test system: Pseudomonas aeruginosa; assay: Antimicrobial activity against Pseudomonas aeruginosa isolate 2933 obtained from cystic fibrosis patient by disk diffusion method; format: functional
# [10] = test system: Pseudomonas aeruginosa; assay: Antimicrobial activity against Pseudomonas aeruginosa isolate 3066 obtained from cystic fibrosis patient by disk diffusion method; format: functional
# [11] = test system: Pseudomonas aeruginosa; assay: Antimicrobial activity against Pseudomonas aeruginosa isolate 2715 obtained from cystic fibrosis patient by agar dilution method
# [12] = test system: Pseudomonas aeruginosa; assay: Antimicrobial activity against Pseudomonas aeruginosa isolate 2716 obtained from cystic fibrosis patient by agar dilution method
# [13] = test system: Pseudomonas aeruginosa; assay: Antimicrobial activity against Pseudomonas aeruginosa isolate 2721 obtained from cystic fibrosis patient by agar dilution method
# [14] = test system: Pseudomonas aeruginosa; assay: Antimicrobial activity against Pseudomonas aeruginosa isolate 2998 obtained from cystic fibrosis patient by agar dilution method
# [15] = test system: Pseudomonas aeruginosa; assay: Antimicrobial activity against Pseudomonas aeruginosa isolate 3020R obtained from cystic fibrosis patient by agar dilution method
# [16] = test system: Pseudomonas aeruginosa; assay: Antimicrobial activity against Pseudomonas aeruginosa PAO1 by twofold macrodilution method; format: functional
# [17] = test system: Pseudomonas aeruginosa; assay: Antimicrobial activity against mexXY deficient ampicillin- and ticarcillin-resistant Pseudomonas aeruginosa FE60 mutant by twofold macrodilution method; format: functional
# [18] = test system: Pseudomonas aeruginosa; assay: Antimicrobial activity against Pseudomonas aeruginosa isolate 615S obtained from cystic fibrosis patient by disk diffusion method; format: functional
# [19] = test system: Pseudomonas aeruginosa; assay: Antimicrobial activity against Pseudomonas aeruginosa isolate 3020S obtained from cystic fibrosis patient by disk diffusion method; format: functional
# [20] = test system: Pseudomonas aeruginosa; assay: Antimicrobial activity against Pseudomonas aeruginosa isolate 2721 expressing inactivated mexB gene by disk diffusion method; format: functional
# [21] = test system: Pseudomonas aeruginosa; assay: Antimicrobial activity against Pseudomonas aeruginosa isolate 2933 expressing inactivated mexB gene by disk diffusion method; format: functional
# [22] = test system: Pseudomonas aeruginosa; assay: Antimicrobial activity against Pseudomonas aeruginosa isolate 2998 expressing inactivated mexB gene by disk diffusion method; format: functional
# [23] = test system: Pseudomonas aeruginosa; assay: Antimicrobial activity against mexXY operon inactivated Pseudomonas aeruginosa PAO1 by twofold macrodilution method; format: functional
# [24] = test system: Pseudomonas aeruginosa; assay: microbe, parasite or virus in culture; conditions: isolate 615R
# Description: Antimicrobial activity against Pseudomonas aeruginosa isolate 615R expressing inactivated mexB gene by disk diffusion method
# [25] = test system: Pseudomonas aeruginosa; assay: microbe, parasite or virus in culture; conditions: isolate 3020S
# Description: Antimicrobial activity against Pseudomonas aeruginosa isolate 3020S expressing inactivated mexB gene by disk diffusion method
# [26] = test system: Pseudomonas aeruginosa; assay: microbe, parasite or virus in culture; conditions: isolate 3020R
# Description: Antimicrobial activity against Pseudomonas aeruginosa isolate 3020R expressing inactivated mexB gene by disk diffusion method
# [27] = test system: Pseudomonas aeruginosa; assay: microbe, parasite or virus in culture; conditions: isolate 2715
# Description: Antimicrobial activity against Pseudomonas aeruginosa isolate 2715 expressing inactivated mexB gene by disk diffusion method
# [28] = test system: Pseudomonas aeruginosa; assay: microbe, parasite or virus in culture; conditions: isolate 2716
# Description: Antimicrobial activity against Pseudomonas aeruginosa isolate 2716 expressing inactivated mexB gene by disk diffusion method
# [29] = test system: Pseudomonas aeruginosa; assay: microbe, parasite or virus in culture; conditions: isolate 2729
# Description: Antimicrobial activity against Pseudomonas aeruginosa isolate 2729 expressing inactivated mexB gene by disk diffusion method
# [30] = test system: Pseudomonas aeruginosa; assay: microbe, parasite or virus in culture; conditions: isolate 3066
# Description: Antimicrobial activity against Pseudomonas aeruginosa isolate 3066 expressing inactivated mexB gene by disk diffusion method
# [31] = test system: Pseudomonas aeruginosa; assay: Ratio of MIC for mexB deficient Pseudomonas aeruginosa FB1 mutant to Pseudomonas aeruginosa PAO1; format: functional
# [32] = test system: Pseudomonas aeruginosa; assay: Antimicrobial activity against Pseudomonas aeruginosa isolate 2729 obtained from cystic fibrosis patient
# [33] = test system: Pseudomonas aeruginosa; assay: Antimicrobial activity against Pseudomonas aeruginosa isolate 2933 obtained from cystic fibrosis patient
# [34] = test system: Pseudomonas aeruginosa; assay: Antimicrobial activity against Pseudomonas aeruginosa isolate 2998 obtained from cystic fibrosis patient
# [35] = test system: Pseudomonas aeruginosa; assay: Antimicrobial activity against Pseudomonas aeruginosa isolate 3066 obtained from cystic fibrosis patient
# [36] = test system: Pseudomonas aeruginosa; assay: Antimicrobial activity against mexB gene inactivated Pseudomonas aeruginosa isolate 2715 obtained from cystic fibrosis patient by agar dilution method
# [37] = test system: Pseudomonas aeruginosa; assay: Antimicrobial activity against mexB gene inactivated Pseudomonas aeruginosa isolate 2716 obtained from cystic fibrosis patient by agar dilution method
# [38] = test system: Pseudomonas aeruginosa; assay: Antimicrobial activity against mexB gene inactivated Pseudomonas aeruginosa isolate 2721 obtained from cystic fibrosis patient by agar dilution method
# [39] = test system: Pseudomonas aeruginosa; assay: Antimicrobial activity against mexB gene inactivated Pseudomonas aeruginosa isolate 3020S obtained from cystic fibrosis patient by agar dilution method
# [40] = test system: Pseudomonas aeruginosa; assay: Antimicrobial activity against mexB gene inactivated Pseudomonas aeruginosa isolate 3020R obtained from cystic fibrosis patient by agar dilution method
# [41] = test system: Pseudomonas aeruginosa; assay: Antimicrobial activity against Pseudomonas aeruginosa isolate 615R with inactivated mexB gene obtained from cystic fibrosis patient by disk diffusion method
# [42] = test system: Pseudomonas aeruginosa; assay: Antimicrobial activity against mexXY operon inactivated Pseudomonas aeruginosa isolate 615S obtained from cystic fibrosis patient by disk diffusion method; format: functional, organism-based
# [43] = test system: Pseudomonas aeruginosa; assay: Antimicrobial activity against mexXY operon inactivated Pseudomonas aeruginosa isolate 2858 obtained from cystic fibrosis patient by disk diffusion method; format: functional, organism-based
molecule,measurement,setting,value
CO/N=C(\C(=O)N[C@@H]1C(=O)N2C(C(=O)[O-])=C(C[N+]3(C)CCCC3)CS[C@H]12)c1csc(N)n1,MIC,[1],8 µg/mL
same,MIC,[2],8 µg/mL
same,MIC,[3],8 µg/mL
same,MIC,[4],16 µg/mL
same,MIC,[5],4 µg/mL
same,MIC,[6],8 µg/mL
same,MIC,[7],32 µg/mL
same,MIC,[8],4 µg/mL
same,MIC,[9],16 µg/mL
same,MIC,[10],32 µg/mL
same,MIC,[11],16 µg/mL
same,MIC,[12],8 µg/mL
same,MIC,[13],8 µg/mL
same,MIC,[14],8 µg/mL
same,MIC,[15],4 µg/mL
NCC[C@H](O)C(=O)N[C@@H]1C[C@H](N)[C@@H](O[C@H]2O[C@H](CN)[C@@H](O)[C@H](O)[C@H]2O)[C@H](O)[C@H]1O[C@H]1O[C@H](CO)[C@@H](O)[C@H](N)[C@H]1O [AMIKACIN],MIC,[16],2 µg/mL
same,MIC,[1],8 µg/mL
same,MIC,[17],0.5 µg/mL
same,MIC,[2],4 µg/mL
same,MIC,[3],4 µg/mL
same,MIC,[4],8 µg/mL
same,MIC,[18],2 µg/mL
same,MIC,[5],16 µg/mL
same,MIC,[19],2 µg/mL
same,MIC,[6],16 µg/mL
same,MIC,[7],128 µg/mL
same,MIC,[8],8 µg/mL
same,MIC,[9],32 µg/mL
same,MIC,[10],128 µg/mL
same,MIC,[11],8 µg/mL
same,MIC,[12],8 µg/mL
same,MIC,[13],32 µg/mL
same,MIC,[14],16 µg/mL
same,MIC,[15],32 µg/mL
C[C@H]1[C@H](NC(=O)/C(=N\OC(C)(C)C(=O)O)c2csc(N)n2)C(=O)N1S(=O)(=O)O [AZTREONAM],MIC,[18],0.12 µg/mL
same,MIC,[5],0.25 µg/mL
same,MIC,[6],0.25 µg/mL
same,MIC,[7],0.25 µg/mL
same,MIC,[8],0.25 µg/mL
same,MIC,[9],0.25 µg/mL
same,MIC,[10],0.25 µg/mL
same,MIC,[20],0.12 µg/mL
same,MIC,[21],0.12 µg/mL
same,MIC,[22],0.12 µg/mL
same,MIC,[23],0.12 µg/mL
same,MIC,[24],0.25 µg/mL
same,MIC,[25],0.25 µg/mL
same,MIC,[26],0.25 µg/mL
same,MIC,[27],0.25 µg/mL
same,MIC,[28],0.25 µg/mL
same,MIC,[29],0.25 µg/mL
same,MIC,[30],0.25 µg/mL
same,MIC,[11],0.5 µg/mL
same,MIC,[12],0.25 µg/mL
same,MIC,[13],0.25 µg/mL
same,MIC,[14],0.12 µg/mL
same,MIC,[15],0.25 µg/mL
CC(C)(O/N=C(\C(=O)N[C@@H]1C(=O)N2C(C(=O)[O-])=C(C[n+]3ccccc3)CS[C@H]12)c1csc(N)n1)C(=O)O [CEFTAZIDIME],MIC,[7],2 µg/mL
same,MIC,[8],4 µg/mL
same,MIC,[9],0.5 µg/mL
same,MIC,[10],> 8 µg/mL
same,MIC,[13],0.5 µg/mL
same,MIC,[14],0.5 µg/mL
O=C(O)c1cn(C2CC2)c2cc(N3CCNCC3)c(F)cc2c1=O [CIPROFLOXACIN],MIC,[4],1 µg/mL
same,MIC,[18],4 µg/mL
same,MIC,[5],1 µg/mL
same,MIC,[6],1 µg/mL
same,MIC,[7],16 µg/mL
same,MIC,[10],16 µg/mL
same,MIC,[11],1 µg/mL
same,MIC,[13],1 µg/mL
same,MIC,[14],1 µg/mL
CO[C@@H]1[C@@H](OC(N)=O)[C@@H](O)[C@H](Oc2ccc3c(O)c(NC(=O)c4ccc(O)c(CC=C(C)C)c4)c(=O)oc3c2C)OC1(C)C [NOVOBIOCIN],MIC,[16],512 µg/mL
same,MIC,[1],512 µg/mL
same,MIC,[18],64 µg/mL
same,MIC,[5],4 µg/mL
same,MIC,[19],512 µg/mL
same,MIC,[6],32 µg/mL
same,MIC,[7],8 µg/mL
same,MIC,[8],64 µg/mL
same,MIC,[9],8 µg/mL
same,MIC,[10],32 µg/mL
same,fold change (FC),[31],16
same,MIC,[23],32 µg/mL
same,MIC,[32],32 µg/mL
same,MIC,[33],4 µg/mL
same,MIC,[34],32 µg/mL
same,MIC,[35],32 µg/mL
same,MIC,[11],16 µg/mL
same,MIC,[12],32 µg/mL
same,MIC,[13],32 µg/mL
same,MIC,[14],32 µg/mL
same,MIC,[15],16 µg/mL
same,MIC,[36],8 µg/mL
same,MIC,[37],32 µg/mL
same,MIC,[38],32 µg/mL
same,MIC,[39],8 µg/mL
same,MIC,[40],16 µg/mL
same,MIC,[41],4 µg/mL
CC1(C)S[C@@H]2[C@H](NC(=O)[C@H](C(=O)O)c3ccsc3)C(=O)N2[C@H]1C(=O)O [TICARCILLIN],MIC,[16],32 µg/mL
same,MIC,[1],32 µg/mL
same,MIC,[18],1 µg/mL
same,MIC,[5],2 µg/mL
same,MIC,[19],16 µg/mL
same,MIC,[6],0.5 µg/mL
same,MIC,[7],0.5 µg/mL
same,MIC,[8],2 µg/mL
same,MIC,[9],0.5 µg/mL
same,MIC,[10],2 µg/mL
same,fold change (FC),[31],64
same,MIC,[11],2 µg/mL
same,MIC,[12],2 µg/mL
same,MIC,[13],2 µg/mL
same,MIC,[14],0.5 µg/mL
same,MIC,[15],2 µg/mL
NC[C@H]1O[C@H](O[C@H]2[C@H](O)[C@@H](O[C@H]3O[C@H](CO)[C@@H](O)[C@H](N)[C@H]3O)[C@H](N)C[C@@H]2N)[C@H](N)C[C@@H]1O [TOBRAMYCIN],MIC,[16],0.5 µg/mL
same,MIC,[1],1 µg/mL
same,MIC,[17],0.06 µg/mL
same,MIC,[2],0.5 µg/mL
same,MIC,[3],0.5 µg/mL
same,MIC,[4],1 µg/mL
same,MIC,[18],0.25 µg/mL
same,MIC,[5],2 µg/mL
same,MIC,[19],0.5 µg/mL
same,MIC,[6],2 µg/mL
same,MIC,[7],64 µg/mL
same,MIC,[8],1 µg/mL
same,MIC,[9],4 µg/mL
same,MIC,[10],16 µg/mL
same,MIC,[11],2 µg/mL
same,MIC,[12],1 µg/mL
same,MIC,[13],4 µg/mL
same,MIC,[14],4 µg/mL
same,MIC,[15],4 µg/mL
GENTAMICIN,MIC,[16],1 µg/mL
same,MIC,[1],2 µg/mL
same,MIC,[17],0.125 µg/mL
same,MIC,[2],1 µg/mL
same,MIC,[3],1 µg/mL
same,MIC,[4],2 µg/mL
same,MIC,[18],1 µg/mL
same,MIC,[5],8 µg/mL
same,MIC,[19],2 µg/mL
same,MIC,[6],8 µg/mL
same,MIC,[7],64 µg/mL
same,MIC,[8],4 µg/mL
same,MIC,[9],16 µg/mL
same,MIC,[10],64 µg/mL
same,MIC,[42],0.125 µg/mL
same,MIC,[43],0.125 µg/mL
same,MIC,[23],0.125 µg/mL
